“And” between values parts separate entries of the source, which are not always exact repeats. Equal values may be shown once. Read-outs that look alike come from different tables or passages of the source. Marks after values point to notes of the source that are not given here.
Experiments:
[1] = system: SW620 xenograft; assay: In vivo antitumor efficacy with irinotecan, SW620 xenograft; design: species or system mice; conditions: SW620, once weekly × 3
Description: In no combination study was antagonism observed.

[2] = IV pharmacokinetics in dogs; conditions: Beagle, in vivo, dog
[3] = system: PARP; assay: Inhibition of cellular NAD consumption in mouse peripheral blood lymphocytes after PARP activation; format: cell-based; conditions: PARP activated by MNNG, hydrogen peroxide or gamma irradiation, data not shown
Description: After DNA damage, cellular NAD is rapidly incorporated into poly-ADP-ribose polymer.

[4] = system: A549 cells; assay: Inhibition of cell growth and potentiation of temozolomide/topotecan, A549; format: cell-based; conditions: for GI50: Homo sapiens, 120 h, 5-day continuous exposure
[5] = Human protein binding; format: in vitro ADME
Experimental: This value was determined from the target effect (IC89) for inhibition of cellular NAD^+ depletion and poly-ADP-ribose polymer formation and adjusted for protein binding. […] II. Pharmaceutical Combinations of the Present Invention and Their Use

[6] = IV pharmacokinetics, summary over all species; design: species or system CD-1 mice, Wistar rats, Beagle dogs, and cynomolgus monkeys; conditions: CD-1 (mouse), Wistar (rat), Beagle (dog), cynomolgus monkey, in vivo, IV dosing
Description: Each of the dose treatment groups was split into 2 cohort groups of 4 mice. The reason for cohort blood sampling is due to the blood volume limitations of the mouse species. Blood was drawn from each cohort every other pharmacokinetic sampling time. […] Three mice per dose group were euthanized at each of the collection time points. […] Blood from each rat was collected for each time point.

[7] = system: SW620 cells; assay: Inhibition of cell growth and potentiation of topotecan, SW620; format: cell-based, human
[8] = human, in vivo
Experimental: This is an open-label, multi-center, dose-escalation study being conducted in 2 parts. Part 1 of the study was open to patients with advanced tumors.
The PK analysis was conducted on preliminary interim data using nominal collection times.

[9] = system: PARP; assay: PARP inhibition in tumor biopsies of patients; format: in vivo, human
Experimental: Whole blood was collected into EDTA vacutainers and human PBLs were obtained by lymphopreparation according to the manufacturers instructions. Tumour biopsies were collected from the operating theatre in a sterile container and placed immediately on ice. Within 30 minutes tumour samples were snap frozen in liquid nitrogen and stored at −80° C. until homogenised for analysis. The specimen was defrosted on ice and the wet weight documented. For weights over 100 mg the tissue was homogenised using a Pro 2000 instrument (Pro Scientific Inc, Monroe, Conn., USA) in 3 volumes (i.e. 1 mg plus 3 μl isotonic buffer −7 mM Hepes, 26 mM KCl, 0.1 mM dextran, 0.4 mM EGTA, 0.5 mM MgCl2, 45 mM sucrose, pH 7.8), giving a homogenate with an overall dilution of 1 in 4. Where smaller samples had been obtained they were homogenised in 99 or 999 volumes, giving final dilutions of 1 in 100 and 1 in 1000, respectively. The homogenate was kept on ice throughout the process, and homogenisation was performed in 10 second bursts to prevent undue warming of the sample. Unless assayed on the day of homogenisation, samples were re-frozen to −80° C. and stored at this temperature until analysed. Prior to assay the samples were further diluted with isotonic buffer where necessary to give a final dilution of 1 in 1000.
Tumour homogenates were assayed in a similar manner; however, the homogenisation process introduces sufficient DNA damage to maximally stimulate PARP activity and oligonucleotide was not therefore required. The protein concentration of the homogenate was measured using the BCA protein assay and Titertek Multiscan MCC/340 plate reader. Results can be expressed in terms of pmol PAR former per mg protein or per mg tumour.
A pharmacodynamic assay for PARP activity and inhibition uses monoclonal antibodies to measure the amount of PAR polymer that is formed under set conditions in permeabilized peripheral blood lymphocytes and homogenized tumor samples. The quantity of polymer formed can be used as a correlate for PARP activity, whereby decreasing polymer formation correlates with degree of PARP inhibition. PARP activity is expressed as a percentage of baseline, and is calculated by dividing the amount of PAR polymer formed after infusion by the quantity formed before infusion. The feasibility of this assay was successfully tested in the 12 patients Phase 2 study of single-agent temozolomide in patients with metastatic melanoma.
Using a pharmacodynamic assay for PARP activity disclosed in Section C above, PARP inhibition in peripheral blood lymphocytes and tumor tissue was assessed in a Phase 1 clinical trial. As indicated above, enrollment in the Phase 1 Part 2 study has been restricted to patients having metastatic melanoma with biopsiable disease. All patients have been required to consent to pre-treatment and post-treatment biopsies such that PARP activity in the tumor can be evaluated.

[10] = 15 mg/kg single IV dose as glucuronate salt
[11] = A549, compound 0.4 μM (Table 6)

CNCc1ccc(-c2[nH]c3cc(F)cc4c3c2CCNC4=O)cc1.O=C[C@H](O)[C@@H](O)[C@H](O)[C@H](O)C(=O)O [compound of formula 1 glucuronate salt]
Enhancement (%) ([1]; irinotecan 25 mg/kg i.p. + 0.05 mg/kg i.p. (glucuronate salt)): 700% | Enhancement (%) ([1]; irinotecan 25 mg/kg i.p. + 0.15 mg/kg i.p. (glucuronate salt)): 1100^f % | Enhancement (%) ([1]; irinotecan 25 mg/kg i.p. + 0.5 mg/kg i.p. (glucuronate salt)): 1100^f %

CNCc1ccc(-c2[nH]c3cc(F)cc4c3c2CCNC4=O)cc1 [compound of formula 1, 8-fluoro-2-{4-[(methylamino)methyl]phenyl}-1,3,4,5-tetrahydro-6H-azepino[5,4,3-cd]indol-6-one]
AUC(0-inf) ([2]; 15 mg/kg single IV dose (free base) as glucuronate salt): 4100 ± 500 ng·h/mL | clearance [2, 10]: 61.8 ± 8.2 mL/min/kg | half-life [2, 10]: 270 ± 66 min | Vd ([2]; 15 mg/kg single IV dose as glucuronate salt, read-out: Vss): 15.2 ± 2.3 L/kg | inhibition of PARP catalytic activity (cellular NAD consumption) [3]: inhibits PARP catalytic activity | Topotecan PF50 ([4]; A549, +0.4 μM compound of formula 1): 1.6 | Temozolomide PF50 ([4]; A549, GI50 temozolomide alone/GI50 temozolomide+0.4 μM compound of formula 1): 3.5 | PF50 (Temozolomide) ([4]; A549, compound 0.0005 μM): 1 | PF50 (Topotecan) ([4]; A549, compound 0.0005 μM): 1.4 | PF50 (Topotecan) ([4]; A549, compound 0.005 μM): 1.8 | PF50 (Temozolomide) ([4]; A549, compound 0.005 μM (5 nM)): 1.3 | PF50 (Topotecan) ([4]; A549, compound 0.05 μM): 2.1 | PF50 (Temozolomide) ([4]; A549, compound 0.1 μM): 2.6 | PF50 (Topotecan) ([4]; A549, compound 0.1 μM): 2.2 | PF50 (Temozolomide) [4, 11]: 3.5 | PF50 (Topotecan) [4, 11]: 2.4 | GI50 ([4]; A549, LoVo and SW620 cell lines, read-out: GI50 values, range over cell lines): 7 to 12 µM | GI50 ([4]; A549, read-out: GI50): 7 µM | fraction unbound ([5]; human, plasma, concentrations between 0.05 to 25 nM): 0.274 | plasma concentration from 5 nM target effect corrected for human protein binding ([5]; target effect IC89 in A549 cells): 5.9 ng/mL | clearance [6]: 34 to 136 mL/min/kg | half-life ([6]; read-out: terminal half-life): 120 to 300 min | Vd ([6]; read-out: volume of distribution): 7 to 15 L/kg | Topotecan PF50 ([7]; +0.4 μM compound of formula 1): 2.6 | GI50 ([7]; Homo sapiens, SW-620, 120 h, 5-day continuous exposure): 11 µM

CNCc1ccc(-c2[nH]c3cc(F)cc4c3c2CCNC4=O)cc1.O=P(O)(O)O [Compound I, phosphate salt of 8-fluoro-2-{4-[(methylamino)methyl]phenyl}-1,3,4,5-tetrahydro-6H-azepino[5,4,3-cd]indol-6-one]
mean total body clearance [8]: 27 L/h | dose proportionality in AUC(0-24) and Cmax ([8]; iv): linear dose proportionality | mean terminal half-life ([8]; iv): 6.2 to 10.7 h | AUC0-24 ([8]; iv, 1 mg/m2): 24.2 ng·h/mL | AUCinf ([8]; iv, 1 mg/m2): 24.2 ng·h/mL | AUC0-24 ([8]; iv, 2 mg/m2): 139.0 ng·h/mL | AUCinf ([8]; iv, 2 mg/m2): 167.0 ng·h/mL | AUC0-24 ([8]; iv, 4 mg/m2): 237.3 ng·h/mL | AUCinf ([8]; iv, 4 mg/m2): 286.6 ng·h/mL | CL ([8]; iv, 4 mg/m2): 26.0 L/h | Cmax ([8]; iv, 4 mg/m2): 168.9 ng/mL | Vss ([8]; iv, 4 mg/m2): 286.4 L | t1/2 ([8]; iv, 4 mg/m2): 10.7 h | AUC0-24 ([8]; iv, 8 mg/m2): 892.4 ng·h/mL | AUCinf ([8]; iv, 8 mg/m2): 1118.8 ng·h/mL | CL ([8]; iv, 8 mg/m2): 16.9 L/h | Cmax ([8]; iv, 8 mg/m2): 456.4 ng/mL | Vss ([8]; iv, 8 mg/m2): 151.7 L | t1/2 ([8]; iv, 8 mg/m2): 10.5 h | AUC0-24 ([8]; iv, 12 mg/m2): 1017.1 ng·h/mL | AUCinf ([8]; iv, 12 mg/m2): 1163.3 ng·h/mL | CL ([8]; iv, 12 mg/m2): 23.9 L/h | Cmax ([8]; iv, 12 mg/m2): 882.5 ng/mL | Vss ([8]; iv, 12 mg/m2): 270.1 L | t1/2 ([8]; iv, 12 mg/m2): 10.6 h | % PARP Inhibition ([9]; tumor biopsy 4-6 h, temozolomide 135 mg/m^2, Compound I 12 mg/m^2, day 1, individual patients): 91% | % PARP Inhibition ([9]; tumor biopsy 4-6 h, temozolomide 135 mg/m^2, Compound I 12 mg/m^2, day 4, individual patients): 85% and 50% | % PARP Inhibition ([9]; tumor biopsy 4-6 h, temozolomide 170 mg/m^2, Compound I 12 mg/m^2, day 1, individual patients): 77% and 98% | % PARP Inhibition ([9]; tumor biopsy 4-6 h, temozolomide 170 mg/m^2, Compound I 12 mg/m^2, day 5, individual patients): 93% | % PARP Inhibition ([9]; tumor biopsy 4-6 h, temozolomide 200 mg/m^2, Compound I 12 mg/m^2, day 1, individual patients): 90% and 88% | % PARP Inhibition ([9]; tumor biopsy 4-6 h, temozolomide 200 mg/m^2, Compound I 18 mg/m^2, day 1, individual patients): 98% and 94% and 89% and 97% | % PARP Inhibition ([9]; tumor biopsy 4-6 h post-treatment, temozolomide 100 mg/m^2, Compound I 4 mg/m^2, day 1, individual patients): 79% | % PARP Inhibition ([9]; tumor biopsy at 24 hours post-treatment on day 1, temozolomide 200 mg/m^2, Compound I 18 mg/m^2): 86%*
